One assay deals with Staphylococcus aureus. Nature of the assay: Antibacterial activity against Staphylococcus aureus NBRC13276 incubated overnight by disc diffusion assay. Type of assay: functional. On the technique in general: Agar diffusion results depend on both activity and mobility in agar.
Assay [1] relates to Brevibacillus choshinensis. Description: Antibacterial activity against Brevibacillus SP3 incubated overnight by disc diffusion assay. Type of assay: functional.
The subject of a further assay is Jonesia denitrificans. Nature of the assay: Antibacterial activity against Listeria denitrificans NBRC15587 incubated overnight by disc diffusion assay. Type of assay: functional.
A further assay has as its system Escherichia coli. Description: Antibacterial activity against Escherichia coli NEB10beta incubated overnight by disc diffusion assay. Type of assay: functional.
For the next assay, the system named is Pseudomonas aeruginosa. Description: Antibacterial activity against Pseudomonas aeruginosa NBRC12689 incubated overnight by disc diffusion assay. Type of assay: functional.
The nature of assay [2]: Metal chelating activity assessed as CAS-Cu complex formation in presence of CAS/CuCl2 by UV-Vis spectrophotometric analysis.

pEC50: −log10 of the molar value. Where only a bound is given, the exact number is not on record here.

The values below come from ChEMBL document CHEMBL6182885, “Discovery, Biological Activity, and Biosynthesis of Pinocicolin A, an Antibiotic Isocyanide Metabolite Produced by Penicillium pinophilum” (J Nat Prod, 2025).

As to `CC(C)[C@H](NC=O)C(=O)OC[C@@H](O)[C@@H](O)[C@H](O)[C@H](O)COC(=O)[C@@H](NC=O)C(C)C`, the MIC (against Staphylococcus aureus; in assay [1]; with Jonesia denitrificans; against Escherichia coli; against Pseudomonas aeruginosa) was above 100 µg throughout.

In the case of `[C-]#[N+][C@H](C(=O)OC[C@@H](O)[C@@H](O)[C@H](O)[C@H](O)COC(=O)[C@@H](NC=O)C(C)C)C(C)C`, the MIC (in the assay on Staphylococcus aureus; in assay [1]; in the assay on Jonesia denitrificans; against Escherichia coli; in the assay on Pseudomonas aeruginosa) was above 100 µg each time. Besides, the pEC50 in assay [2] is 4.57.

For the compound `[C-]#[N+][C@H](C(=O)OC[C@@H](O)[C@@H](O)[C@H](O)[C@H](O)COC(=O)[C@@H]([N+]#[C-])C(C)C)C(C)C`, the MIC against Staphylococcus aureus was 5 µg; in assay [1] it was 5 µg; in the assay on Jonesia denitrificans, 5 µg; against Escherichia coli it was above 100 µg; with Pseudomonas aeruginosa it was above 100 µg. Besides, the pEC50 in assay [2] was 5.10.

By pEC50 is commonly meant −log10 of the EC50, conventionally taken in molar units.
